Measurements taken from patent publication US20180244611A1, “Modulators of the Cystic Fibrosis Transmembrane Conductance Regulator Protein and Methods of Use” (AbbVie S.à.r.l., priority 2017, published 2018).

Legend:
F508delCFTR [1] = biological target: T1, F508delCFTR (Homo sapiens, UniProt P13569, DEL508-508); experiment: Cell Surface Expression-Horse Radish Peroxidase (CSE-HRP) assay, test compound without co-corrector; format: cell-based; details: for Emax: maximum at any tested concentration, normalized to positive control, without co-corrector; for EC50: test compound without co-corrector;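 on Emax: percent of on-plate 2 µM positive control corrector response over DMSO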
T1 construct: expressed in transfected cells; host or cells: CFBE41o- human lung-derived epithelial cells (CFBE41o-F508delCFTR-HRP), doxycycline-inducible
In short: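 Compound without co-corrector was tested at eight 3-fold concentrations, top 20 μM, for 18-24 h at 33° C on doxycycline-induced (0.5 μg/mL, 72 h) CFBE41o- F508delCFTR-HRP cells. After DPBS washes, luminol luminescence gave % activity relative to on-plate positive control minus DMSO; EC50 came from triplicate-plate sigmoidal fitting.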

F508delCFTR [2] = biological target: T1, F508delCFTR; experiment: Cell Surface Expression-Horse Radish Peroxidase (CSE-HRP) assay, test compound with co-corrector; format: cell-based; details: with 2 μM co-corrector; for Maximum % activity (with co-corrector): maximum at any tested concentration, normalized to positive control;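 on Maximum % activity (with co-corrector): percent of 2 µM positive control corrector over DMSO; co-corrector is that same compound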
In short: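 Surface-expression read-out: luminol luminescence from an HRP tag in the fourth exofacial loop of F508delCFTR, in doxycycline-induced (0.5 μg/mL, 72 h) CFBE41o- cells. Compound plus 2 μM co-corrector added for 18-24 h at 33° C., 8-point 3-fold series up to 20 μM. EC50 from a sigmoidal fit with variable Hill slope, normalised to positive control, triplicate plates.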

T1 sequence (P13569 with tags, fused parts or gaps DEL508-508): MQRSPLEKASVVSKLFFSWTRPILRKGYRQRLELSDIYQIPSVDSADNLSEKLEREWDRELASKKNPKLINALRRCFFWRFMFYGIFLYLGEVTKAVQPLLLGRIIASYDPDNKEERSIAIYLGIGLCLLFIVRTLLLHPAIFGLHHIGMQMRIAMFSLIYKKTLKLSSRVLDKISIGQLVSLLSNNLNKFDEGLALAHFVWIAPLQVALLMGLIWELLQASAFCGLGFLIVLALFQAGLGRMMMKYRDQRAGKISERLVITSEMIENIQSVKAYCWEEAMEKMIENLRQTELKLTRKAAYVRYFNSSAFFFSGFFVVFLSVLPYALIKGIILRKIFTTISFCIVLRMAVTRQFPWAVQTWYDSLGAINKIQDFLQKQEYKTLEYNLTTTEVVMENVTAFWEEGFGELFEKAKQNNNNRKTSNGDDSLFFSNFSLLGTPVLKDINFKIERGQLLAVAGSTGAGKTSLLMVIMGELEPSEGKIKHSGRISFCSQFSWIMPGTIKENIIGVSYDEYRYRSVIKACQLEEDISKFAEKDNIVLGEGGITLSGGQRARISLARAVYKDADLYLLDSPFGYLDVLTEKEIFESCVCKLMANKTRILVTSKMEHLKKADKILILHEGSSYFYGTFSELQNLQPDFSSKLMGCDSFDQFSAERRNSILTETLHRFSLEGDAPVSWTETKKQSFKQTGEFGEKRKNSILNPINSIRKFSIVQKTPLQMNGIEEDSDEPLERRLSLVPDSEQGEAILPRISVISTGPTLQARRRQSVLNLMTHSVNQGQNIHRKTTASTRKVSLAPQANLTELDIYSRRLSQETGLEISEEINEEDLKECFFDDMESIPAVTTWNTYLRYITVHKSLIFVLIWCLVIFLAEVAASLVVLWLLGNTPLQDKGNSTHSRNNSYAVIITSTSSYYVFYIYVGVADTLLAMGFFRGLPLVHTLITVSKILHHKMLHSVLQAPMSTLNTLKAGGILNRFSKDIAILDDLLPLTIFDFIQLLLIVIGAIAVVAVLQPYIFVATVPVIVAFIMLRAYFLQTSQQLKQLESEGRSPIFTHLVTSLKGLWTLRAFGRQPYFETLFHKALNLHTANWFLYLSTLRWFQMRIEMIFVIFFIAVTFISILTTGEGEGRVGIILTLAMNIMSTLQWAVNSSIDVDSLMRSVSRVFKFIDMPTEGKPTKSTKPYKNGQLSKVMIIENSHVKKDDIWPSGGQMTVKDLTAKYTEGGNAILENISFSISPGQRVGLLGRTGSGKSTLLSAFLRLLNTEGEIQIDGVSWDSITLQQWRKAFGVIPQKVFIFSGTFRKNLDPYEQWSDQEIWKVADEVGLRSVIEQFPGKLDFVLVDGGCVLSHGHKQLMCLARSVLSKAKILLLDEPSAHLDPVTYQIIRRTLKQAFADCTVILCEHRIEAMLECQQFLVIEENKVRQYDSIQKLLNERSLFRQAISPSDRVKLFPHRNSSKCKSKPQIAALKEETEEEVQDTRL

COc1cccc2c1CCC2C(=O)NS(=O)(=O)c1cc([N+](=O)[O-])ccc1C (stereo not shown) [III-30]
Emax (F508delCFTR [1]): < 50%
EC50 (F508delCFTR [1]): ≥ 10 µM
Maximum % activity (with co-corrector) (F508delCFTR [2]): + (<150)
EC50 (F508delCFTR [2]): ≥ 10 µM

COc1cccc2c1CCC2C(=O)NS(=O)(=O)c1ccc(NC(C)=O)cc1C (stereo not shown) [III-31]
Emax (F508delCFTR [1]): < 50%
EC50 (F508delCFTR [1]): ≥ 10 µM
Maximum % activity (with co-corrector) (F508delCFTR [2]): + (<150)
EC50 (F508delCFTR [2]): ≥ 10 µM

COc1cccc2c1CCC2C(=O)NS(=O)(=O)c1ccc(Cl)cc1 (stereo not shown) [III-32]
Emax (F508delCFTR [1]): < 50%
EC50 (F508delCFTR [1]): ≥ 10 µM
Maximum % activity (with co-corrector) (F508delCFTR [2]): + (<150)
EC50 (F508delCFTR [2]): ≥ 10 µM

COc1cccc2c1CCC2C(=O)NS(=O)(=O)c1ccc(Cl)cc1[N+](=O)[O-] (stereo not shown) [III-33]
Emax (F508delCFTR [1]): < 50%
EC50 (F508delCFTR [1]): ≥ 10 µM
Maximum % activity (with co-corrector) (F508delCFTR [2]): ++ (≥150 and <350)
EC50 (F508delCFTR [2]): < 3 µM

COc1cccc2c1CCC2C(=O)NS(=O)(=O)c1ccc2ccccc2c1 (stereo not shown) [III-34]
Emax (F508delCFTR [1]): < 50%
EC50 (F508delCFTR [1]): ≥ 10 µM
Maximum % activity (with co-corrector) (F508delCFTR [2]): + (<150)
EC50 (F508delCFTR [2]): ≥ 10 µM

COc1cccc2c1CCC2C(=O)NS(=O)(=O)c1cccc(Cl)c1 (stereo not shown) [III-35]
Emax (F508delCFTR [1]): < 50%
EC50 (F508delCFTR [1]): ≥ 10 µM
Maximum % activity (with co-corrector) (F508delCFTR [2]): ++ (≥150 and <350)
EC50 (F508delCFTR [2]): 3 to 10 µM

COc1cccc2c1CCC2C(=O)NS(=O)(=O)c1ccc(NC(=O)CC(C)=O)cc1 (stereo not shown) [III-36]
Emax (F508delCFTR [1]): < 50%
EC50 (F508delCFTR [1]): ≥ 10 µM
Maximum % activity (with co-corrector) (F508delCFTR [2]): + (<150)
EC50 (F508delCFTR [2]): ≥ 10 µM

COc1cccc2c1CCC2C(=O)NS(=O)(=O)c1ccc(Cl)cc1Cl (stereo not shown) [III-37]
Emax (F508delCFTR [1]): < 50%
EC50 (F508delCFTR [1]): ≥ 10 µM
Maximum % activity (with co-corrector) (F508delCFTR [2]): + (<150)
EC50 (F508delCFTR [2]): ≥ 10 µM

COc1cccc2c1CCC2C(=O)NS(=O)(=O)c1cc(C)c(N)cc1Cl (stereo not shown) [III-38]
Emax (F508delCFTR [1]): < 50%
EC50 (F508delCFTR [1]): ≥ 10 µM
Maximum % activity (with co-corrector) (F508delCFTR [2]): ++ (≥150 and <350)
EC50 (F508delCFTR [2]): 3 to 10 µM

COc1cccc2c1CCC2C(=O)NS(=O)(=O)c1cc(C)ccc1Cl (stereo not shown) [III-39]
Emax (F508delCFTR [1]): < 50%
EC50 (F508delCFTR [1]): ≥ 10 µM
Maximum % activity (with co-corrector) (F508delCFTR [2]): + (<150)
EC50 (F508delCFTR [2]): ≥ 10 µM

COc1cccc2c1CCC2C(=O)NS(=O)(=O)c1cc([N+](=O)[O-])ccc1Cl (stereo not shown) [III-40]
Emax (F508delCFTR [1]): < 50%
EC50 (F508delCFTR [1]): ≥ 10 µM
Maximum % activity (with co-corrector) (F508delCFTR [2]): + (<150)
EC50 (F508delCFTR [2]): ≥ 10 µM

COc1cccc2c1CCC2C(=O)NS(=O)(=O)c1ccc(NC(C)=O)cc1 (stereo not shown) [III-41]
Emax (F508delCFTR [1]): < 50%
EC50 (F508delCFTR [1]): ≥ 10 µM
Maximum % activity (with co-corrector) (F508delCFTR [2]): + (<150)
EC50 (F508delCFTR [2]): ≥ 10 µM

COc1cccc2c1CCC2C(=O)NS(=O)(=O)c1ccc(NC(C)=O)cc1Cl (stereo not shown) [III-42]
Emax (F508delCFTR [1]): < 50%
EC50 (F508delCFTR [1]): ≥ 10 µM
Maximum % activity (with co-corrector) (F508delCFTR [2]): + (<150)
EC50 (F508delCFTR [2]): ≥ 10 µM

CCCC(=O)Nc1ccc(S(=O)(=O)NC(=O)C2CCc3c(OC)cccc32)cc1 (stereo not shown) [III-43]
Emax (F508delCFTR [1]): < 50%
EC50 (F508delCFTR [1]): ≥ 10 µM
Maximum % activity (with co-corrector) (F508delCFTR [2]): + (<150)
EC50 (F508delCFTR [2]): ≥ 10 µM

COc1cccc2c1CCC2C(=O)NS(=O)(=O)c1c(C)nn(C)c1Cl (stereo not shown) [III-44]
Emax (F508delCFTR [1]): < 50%
EC50 (F508delCFTR [1]): ≥ 10 µM
Maximum % activity (with co-corrector) (F508delCFTR [2]): + (<150)
EC50 (F508delCFTR [2]): ≥ 10 µM

COc1cccc2c1CCC2C(=O)NS(=O)(=O)c1c(C)nc(O)nc1O (stereo not shown) [III-45]
Emax (F508delCFTR [1]): < 50%
EC50 (F508delCFTR [1]): ≥ 10 µM
Maximum % activity (with co-corrector) (F508delCFTR [2]): + (<150)
EC50 (F508delCFTR [2]): ≥ 10 µM

COc1cccc2c1CCC2C(=O)NS(=O)(=O)c1ccc(C#N)cc1 (stereo not shown) [III-46]
Emax (F508delCFTR [1]): < 50%
EC50 (F508delCFTR [1]): ≥ 10 µM
Maximum % activity (with co-corrector) (F508delCFTR [2]): + (<150)
EC50 (F508delCFTR [2]): ≥ 10 µM

COc1cccc2c1CCC2C(=O)NS(=O)(=O)c1ccc2oc(=O)ccc2c1 (stereo not shown) [III-47]
Emax (F508delCFTR [1]): < 50%
EC50 (F508delCFTR [1]): ≥ 10 µM
Maximum % activity (with co-corrector) (F508delCFTR [2]): + (<150)
EC50 (F508delCFTR [2]): ≥ 10 µM

CCOC(=O)c1ccc(S(=O)(=O)NC(=O)C2CCc3c(OC)cccc32)cc1 (stereo not shown) [III-48]
Emax (F508delCFTR [1]): < 50%
EC50 (F508delCFTR [1]): ≥ 10 µM
Maximum % activity (with co-corrector) (F508delCFTR [2]): + (<150)
EC50 (F508delCFTR [2]): ≥ 10 µM

COc1cccc2c1CCC2C(=O)NS(=O)(=O)c1ccc(C)c([N+](=O)[O-])c1C (stereo not shown) [III-49]
Emax (F508delCFTR [1]): < 50%
EC50 (F508delCFTR [1]): ≥ 10 µM
Maximum % activity (with co-corrector) (F508delCFTR [2]): ++ (≥150 and <350)
EC50 (F508delCFTR [2]): 3 to 10 µM

COc1cccc2c1CCC2C(=O)NS(=O)(=O)c1cc(C(=O)Nc2c(C)cccc2C)c(O)cc1Cl (stereo not shown) [III-50]
Emax (F508delCFTR [1]): < 50%
EC50 (F508delCFTR [1]): ≥ 10 µM
Maximum % activity (with co-corrector) (F508delCFTR [2]): + (<150)
EC50 (F508delCFTR [2]): ≥ 10 µM

COc1cccc2c1CCC2C(=O)NS(=O)(=O)c1c(C)nn(CCCl)c1C (stereo not shown) [III-51]
Emax (F508delCFTR [1]): < 50%
EC50 (F508delCFTR [1]): ≥ 10 µM
Maximum % activity (with co-corrector) (F508delCFTR [2]): + (<150)
EC50 (F508delCFTR [2]): ≥ 10 µM
